Test system: H. pylori 26695
Experiment: In vivo inhibition of HsrA: RNA-Seq transcriptomic analysis of exposed cells
Format: cell-based, Helicobacter pylori
Conditions: for log2 Fold Change: exposed to lethal concentrations vs control
Protocol: Bacterial growth from three blood agar plates of H. pylori ATCC 700392 (aka 26695) incubated for 48 h at 37 °C under microaerobic conditions was aseptically resuspended in BHI + FBS and adjusted to 10^7 CFU/mL. BHI broth cultures were incubated microaerobically at 37 °C for 24 h. […] At this time, bacterial growth was stopped by adding 1.5 mL ice-cold RNA stop solution (95% absolute ethanol, 5% acid-buffered phenol) and subsequently incubated on ice. Control samples were exposed to the same amount of DMSO instead of the inhibitor. Helicobacter cells from all samples were harvested by centrifugation (4000 rpm at 4 °C for 10 min), then the pellets were quickly frozen by immersion in liquid nitrogen and stored at −80 °C.
RNA-Seq analysis was performed by GENEWIZ (Azenta Life Sciences, Leipzig, Germany). Frozen cell pellets from two biological replicates of each treatment condition were properly submitted to GENEWIZ in dry ice. RNA-Seq libraries were prepared according to standard protocols via rRNA depletion, RNA fragmentation and random priming, reverse transcription, 5’-phosphorylation and dA-tailing of cDNAs, adaptor ligation, and PCR enrichment. Once the quality of each library was confirmed, they were sequenced on an Illumina NovaSeq 6000 (Illumina, San Diego, CA, USA) with 150-bp paired-ends. Raw sequence reads were filtered to remove possible adapter sequences and nucleotides with poor quality using Trimmomatic v.0.36 [105]. The trimmed reads were subsequently mapped to the H. pylori strain 26695 reference genome NC_000915.1 available on NCBI, by using the Bowtie2 aligner v.2.2.6 [106]. Unique gene hit counts were calculated by using featureCounts from the Subread package v.1.5.2. Only unique reads that fell within the gene regions were counted. Using DESeq2 [108], a comparison of the gene expression between the control and treated groups of samples was performed. The Wald test was used to generate p-values and log2 fold changes. Genes with an adjusted p-value < 0.05 and absolute log2 fold change >1 were considered as differentially expressed genes (DEGs) for each comparison. The RNA-Seq data generated in this study have been deposited in ArrayExpress with the accession number E-MTAB-14255.

NC(=NOC(=O)Nc1ccc(Cl)cc1)c1csc([N+](=O)[O-])c1 [Ligand V, N′-{[(4-chloroanilino)carbonyl]}oxy-5-nitrothiophene-3-carboximidamide]
log2 Fold Change (gene HP1464): -0.584
log2 Fold Change (gene HP1467): 1.322
log2 Fold Change HP1469 (gene HP1469, lethal concentrations of V vs control): 0.362
log2 Fold Change (gene HP1470): 1.312
log2 Fold Change HP1473 (gene HP1473, lethal concentrations of V vs control): 0.275
log2 Fold Change (gene HP1481): -0.602
log2 Fold Change HP1492 (gene HP1492, lethal concentrations of V vs control): 0.282
log2 Fold Change HP1499 (gene HP1499, lethal concentrations of V vs control): 0.340
log2 Fold Change HP1501 (gene HP1501, lethal concentrations of V vs control): 0.305
log2 Fold Change (gene HP1504): 1.311
log2 Fold Change HP1505 (gene HP1505, lethal concentrations of V vs control): 0.278
log2 Fold Change HP1512 (gene HP1512, lethal concentrations of V vs control): 0.234
log2 Fold Change (gene HP1513): -0.489
log2 Fold Change HP1521 (gene HP1521, lethal concentrations of V vs control): 0.260
log2 Fold Change (gene HP1537): -0.495
log2 Fold Change HP1539 (gene HP1539, lethal concentrations of V vs control): 0.288
log2 Fold Change (gene HP1556): -0.480
log2 Fold Change HP1562 (gene HP1562, lethal concentrations of V vs control): 0.282
log2 Fold Change (gene HP1572): -0.532
log2 Fold Change (gene HP1573): -0.478
log2 Fold Change (gene HPrrnA16S): 2.639
log2 Fold Change (gene acpS): -0.554
log2 Fold Change adk (gene adk, lethal concentrations of V vs control): 0.370
log2 Fold Change aroB (gene aroB, lethal concentrations of V vs control): 0.331
log2 Fold Change ddl (gene ddl, lethal concentrations of V vs control): 0.165
log2 Fold Change dnaA (gene dnaA, lethal concentrations of V vs control): 0.315
log2 Fold Change dnaG (gene dnaG, lethal concentrations of V vs control): 0.180
log2 Fold Change dut (gene dut, lethal concentrations of V vs control): 0.253
log2 Fold Change fbcH (gene fbcH, lethal concentrations of V vs control): 0.402
log2 Fold Change flgD (gene flgD, lethal concentrations of V vs control): 0.479
log2 Fold Change flgH (gene flgH, lethal concentrations of V vs control): 0.237
log2 Fold Change flhF (gene flhF, lethal concentrations of V vs control): 0.252
log2 Fold Change (gene fliQ): -0.518
log2 Fold Change fliR (gene fliR, lethal concentrations of V vs control): 0.363
log2 Fold Change folE (gene folE, lethal concentrations of V vs control): 0.244
log2 Fold Change fusA (gene fusA, lethal concentrations of V vs control): 0.268
log2 Fold Change (gene gcp): -0.507
log2 Fold Change glmM (gene glmM, lethal concentrations of V vs control): 0.344
log2 Fold Change (gene gltX): -0.588
log2 Fold Change gmk (gene gmk, lethal concentrations of V vs control): 0.172
log2 Fold Change groES (gene groES, lethal concentrations of V vs control): 0.428
log2 Fold Change guaA (gene guaA, lethal concentrations of V vs control): 0.370
log2 Fold Change gyrB (gene gyrB, lethal concentrations of V vs control): 0.200
log2 Fold Change (gene hemC): -0.538
log2 Fold Change hypA (gene hypA, lethal concentrations of V vs control): 0.375
log2 Fold Change infB (gene infB, lethal concentrations of V vs control): 0.319
log2 Fold Change ksgA (gene ksgA, lethal concentrations of V vs control): 0.343
log2 Fold Change (gene lpxB): -0.543
log2 Fold Change lpxK (gene lpxK, lethal concentrations of V vs control): 0.332
log2 Fold Change mnmA (gene mnmA, lethal concentrations of V vs control): 0.256
log2 Fold Change motB (gene motB, lethal concentrations of V vs control): 0.465
log2 Fold Change mraY (gene mraY, lethal concentrations of V vs control): 0.155
log2 Fold Change nusB (gene nusB, lethal concentrations of V vs control): 0.152
log2 Fold Change oorC (gene oorC, lethal concentrations of V vs control): 0.231
log2 Fold Change (gene panC): 1.338
log2 Fold Change (gene pheT): -0.561
log2 Fold Change porA (gene porA, lethal concentrations of V vs control): 0.146
log2 Fold Change prfB (gene prfB, lethal concentrations of V vs control): 0.329
log2 Fold Change pyrH (gene pyrH, lethal concentrations of V vs control): 0.243
log2 Fold Change recA (gene recA, lethal concentrations of V vs control): 0.430
log2 Fold Change (gene rnc): -0.477
log2 Fold Change (gene rplQ): -0.590
log2 Fold Change (gene rplW): -0.487
log2 Fold Change (gene rplX): -0.561
log2 Fold Change rpsB (gene rpsB, lethal concentrations of V vs control): 0.177
log2 Fold Change (gene rpsI): -0.579
log2 Fold Change ruvA (gene ruvA, lethal concentrations of V vs control): 0.457
log2 Fold Change ruvB (gene ruvB, lethal concentrations of V vs control): 0.388
log2 Fold Change secD (gene secD, lethal concentrations of V vs control): 0.450
log2 Fold Change (gene tRNA-Arg-4): -0.569
log2 Fold Change (gene tRNA-Gln-1): 1.327
log2 Fold Change tRNA-Ser-1 (gene tRNA-Ser-1, lethal concentrations of V vs control): 0.297
log2 Fold Change (gene tRNA-Ser-2): 1.370
log2 Fold Change tRNA-Ser-3 (gene tRNA-Ser-3, lethal concentrations of V vs control): 0.425
log2 Fold Change (gene tRNA-Trp-1): -0.513
log2 Fold Change (gene tgt): -0.523
log2 Fold Change trpD (gene trpD, lethal concentrations of V vs control): 0.327
log2 Fold Change tsf (gene tsf, lethal concentrations of V vs control): 0.474
log2 Fold Change uvrA (gene uvrA, lethal concentrations of V vs control): 0.417
log2 Fold Change (gene xseA): -0.471
log2 Fold Change yajC (gene yajC, lethal concentrations of V vs control): 0.146

From article PMC11432330, “Novel Drug-like HsrA Inhibitors Exhibit Potent Narrow-Spectrum Antimicrobial Activities against Helicobacter pylori” (International Journal of Molecular Sciences, 2024)
